Data set [1] is described as follows: INCB001158 plasma pharmacokinetics (LC-MS/MS, noncompartmental analysis). It is filed as in vivo, Japanese patients. The settings on record: for Cmax: read-out: INCB001158 geometric mean Cmax. As for the experimental part: Pharmacokinetics of single‐agent retifanlimab and INCB001158, and the combination, were secondary endpoints of the study. The detection of anti‐drug antibodies (ADAs) was an exploratory endpoint. Blood samples for retifanlimab PK assessments were taken on days 1 (−2 h pre‐dose, end of infusion, and 6 h post‐dose), 2, 8, and 15 (no specified time) of cycle 1, day 1 of cycles 2–8 (−2 h pre‐dose, and end of infusion on cycles 2 and 6 only), and day 1 of every 4 cycles after cycle 8 (−2 h pre‐dose). Samples for ADA assessment were collected at the same time as for PK analysis, and an additional sample was collected at safety follow‐up on day 15 (no specified time). Blood samples for INCB001158 were collected pre‐dose, 0.5, 1, 2, 4, 6, and 8 h post‐dose on days 1 and 15 of cycle 1, 12 h post‐dose on day 1 of cycle 1, and pre‐dose on days 2 and 8 for cycle 1, and day 1 of cycle 2. Serum concentrations of retifanlimab were determined using an electrochemiluminescence immunoassay method, and plasma concentrations of INCB001158 were measured using a validated liquid chromatography with tandem mass spectrometry assay (Incyte Corporation, Wilmington, DE, USA). ADAs against retifanlimab were monitored using a bridging immunoassay (Incyte Corporation).
Pharmacokinetics parameters were derived from concentrations versus time data using model‐independent noncompartmental analysis methods (WinNonlin v8.2, Certara USA Inc., Princeton, NJ, USA), and included maximum observed serum or plasma concentration (C max), serum or plasma concentration observed at the end of the dosing interval (C tau), time to maximum observed serum or plasma concentration (t max), area under the serum or plasma concentration–time curve (AUC) from time 0 to the end of the dosing interval (AUCtau), AUC from time 0 to infinity (AUC0‐∞), apparent terminal‐phase disposition half‐life, clearance, and volume of distribution. […]

The subject of data set [2] is urea cycle. The data set can be described thus: Pharmacodynamics: urinary orotic acid and plasma ammonia (urea cycle inhibition). In kind it is in vivo, Japanese patients. On the procedure:
Pharmacodynamics of INCB001158 alone or in combination were assessed as an exploratory objective. Urine was collected at regular intervals from patients in the INCB001158 monotherapy and combination groups to assess urinary orotic acid levels and evaluate whether INCB001158 inhibits the urea cycle. Plasma samples from patients in these groups were also assessed for ammonia, arginine, and ornithine levels.

Setting [3] is: steady-state, 100 mg BID oral, monotherapy: two individual values (n = 2), combination n = 5 mean ± SD (geometric mean).

1 compound from paper PMC11036078, “PD‐1 inhibition with retifanlimab and/or arginase inhibition with INCB001158 in Japanese patients with solid tumors: A phase I study” (Cancer Medicine, 2024) can be followed below.

The structures appear in SMILES notation. Where two headings read alike, the source gives them in different places.

By Cmax is commonly meant the highest concentration seen after dosing. A word on the Tmax: it is the time from dosing to the highest level.

In the case of `C[C@H](N)C(=O)N1C[C@H](CCCB(O)O)[C@](N)(C(=O)O)C1` [INCB001158], the “PK of INCB001158 in combination with retifanlimab versus INCB001158 monotherapy” value in data set [1] (Japanese patients) was “comparable”. For the same compound, the “Drug–drug interaction (INCB001158 PK, combination vs monotherapy cohorts)” value in data set [1] (combination cohort) is “no drug–drug interaction”. Also, the AUC in data set [1] (human, plasma, oral, 100 mg, first dose, 100 mg BID monotherapy, read-out: INCB001158 geometric mean AUC0‐∞) was determined as 17.9 µg·h/mL; in data set [1] (human, plasma, oral, 100 mg, first dose, 100 mg BID monotherapy, read-out: INCB001158 geometric mean AUCtau), 13.7 µg·h/mL; in data set [1] (human, plasma, oral, 100 mg, steady‐state, 100‐mg BID monotherapy, read-out: INCB001158 geometric mean AUCtau) it was 23.2 µg·h/mL. Besides, the Cmax in data set [1] (human, plasma, oral, 100 mg, first dose, 100 mg BID monotherapy) was 1.74 µg/mL; in data set [1] (human, plasma, oral, 100 mg, steady‐state, 100‐mg BID monotherapy), 2.69 µg/mL. Moreover, the time of peak concentration (Tmax) was 3.9 h in data set [1] (human, plasma, oral, 100 mg, first dose, 100 mg BID monotherapy, read-out: INCB001158 median tmax); 3.8 h in data set [1] (human, plasma, oral, 100 mg, steady‐state, 100‐mg BID monotherapy, read-out: INCB001158 median tmax); 3.9 h in data set [1] (human, plasma, po, 75 mg, first dose, 75 mg BID oral, n = 3, median (min, max), read-out: INCB001158 tmax); 3.9 h in data set [1] (human, plasma, po, 75 mg, steady-state, 75 mg BID oral, n = 3, median (min, max), read-out: INCB001158 tmax); 3.9 h in data set [1] (human, plasma, po, 100 mg, first dose, 100 mg BID oral, monotherapy n = 3, combination n = 6, median (min, max), read-out: INCB001158 tmax); 3.8 h in data set [1] (human, plasma, po, 100 mg, steady-state, 100 mg BID oral, monotherapy n = 3, combination n = 5, median (min, max), read-out: INCB001158 tmax). For the same compound, the Vd/F in data set [1] (human, plasma, po, 100 mg, steady-state, 100 mg BID oral, monotherapy: two individual values (n = 2), combination n = 5 mean ± SD (geometric mean), read-out: INCB001158 Vz/F) came to 44.9 L. Also, the half-life in data set [1] (human, plasma, po, 100 mg, steady-state, 100 mg BID oral, monotherapy: two individual values (n = 2), combination n = 5 mean ± SD (geometric mean), read-out: INCB001158 t½ (converted)) was 6.25 h. Besides, in data set [1] (setting [3]), the “INCB001158 Vz/F” value is reported as 39.3 L. Further, the “INCB001158 t½” value in data set [1] (setting [3]) stood at 5.50 h. Besides, the “INCB001158 geometric mean Ctau” value in data set [1] (steady‐state, 100‐mg BID monotherapy) is 1130 ng/mL. In data set [2] (change from baseline), the Urine orotic acid entry is recorded as “no marked rises”. The “Symptoms of significant urea cycle inhibition” value in data set [2] (e.g., unexplained anorexia, nausea, vomiting) was “no symptoms”. Moreover, the Plasma ammonia result in data set [2] (patients receiving INCB001158) was “no concurrent increases”. For the same compound, the Urea cycle inhibition result in data set [2] (patients receiving INCB001158) is on record as “no evidence of consistent urea cycle inhibition”.
